PubChem BioAssay AID1259407 (Chemical Carcinogenesis Research Information System (CCRIS), 2018)
Activity calls are given as the source filed them. The rule behind the calls is not given here.

System: CCRIS mutagenicity, Ames/micronucleus/aberration tests
Assay: CCRIS mutagenicity studies

Measured: mutagenic call

O=C1c2ccccc2CCc2ccccc21
inactive: Test System: AMES SALMONELLA TYPHIMURIUM, Strain/Indicator: TA98, Metabolic Activation: HAMSTER, LIVER, S-9, AROCLOR 1254, Method: STANDARD PLATE inactive; negative | Test System: AMES SALMONELLA TYPHIMURIUM, Strain/Indicator: TA98, Metabolic Activation: NONE, Method: STANDARD PLATE inactive; negative | Test System: AMES SALMONELLA TYPHIMURIUM, Strain/Indicator: TA98, Metabolic Activation: RAT, LIVER, S-9, AROCLOR 1254, Method: STANDARD PLATE inactive; negative | Test System: AMES SALMONELLA TYPHIMURIUM, Strain/Indicator: TA100, Metabolic Activation: HAMSTER, LIVER, S-9, AROCLOR 1254, Method: STANDARD PLATE inactive; negative | Test System: AMES SALMONELLA TYPHIMURIUM, Strain/Indicator: TA100, Metabolic Activation: NONE, Method: STANDARD PLATE inactive; negative | Test System: AMES SALMONELLA TYPHIMURIUM, Strain/Indicator: TA100, Metabolic Activation: RAT, LIVER, S-9, AROCLOR 1254, Method: STANDARD PLATE inactive; negative | Test System: AMES SALMONELLA TYPHIMURIUM, Strain/Indicator: TA1535, Metabolic Activation: HAMSTER, LIVER, S-9, AROCLOR 1254, Method: STANDARD PLATE inactive; negative | Test System: AMES SALMONELLA TYPHIMURIUM, Strain/Indicator: TA1535, Metabolic Activation: NONE, Method: STANDARD PLATE inactive; negative | Test System: AMES SALMONELLA TYPHIMURIUM, Strain/Indicator: TA1535, Metabolic Activation: RAT, LIVER, S-9, AROCLOR 1254, Method: STANDARD PLATE inactive; negative | Test System: AMES SALMONELLA TYPHIMURIUM, Strain/Indicator: TA1537, Metabolic Activation: HAMSTER, LIVER, S-9, AROCLOR 1254, Method: STANDARD PLATE inactive; negative | Test System: AMES SALMONELLA TYPHIMURIUM, Strain/Indicator: TA1537, Metabolic Activation: NONE, Method: STANDARD PLATE inactive; negative | Test System: AMES SALMONELLA TYPHIMURIUM, Strain/Indicator: TA1537, Metabolic Activation: RAT, LIVER, S-9, AROCLOR 1254, Method: STANDARD PLATE inactive; negative | Test System: AMES SALMONELLA TYPHIMURIUM, Strain/Indicator: TA1538, Metabolic Activation: HAMSTER, LIVER, S-9, AROCLOR 1254, Method: STANDARD PLATE inactive; negative | Test System: AMES SALMONELLA TYPHIMURIUM, Strain/Indicator: TA1538, Metabolic Activation: NONE, Method: STANDARD PLATE inactive; negative | Test System: AMES SALMONELLA TYPHIMURIUM, Strain/Indicator: TA1538, Metabolic Activation: RAT, LIVER, S-9, AROCLOR 1254, Method: STANDARD PLATE inactive; negative | Test System: MOUSE LYMPHOMA, Strain/Indicator: L5178Y (TK+/TK-), Metabolic Activation: NONE, Method: SUSPENSION/PLATE inactive; negative. reevaluation of results: negative | Test System: MOUSE LYMPHOMA, Strain/Indicator: L5178Y (TK+/TK-), Metabolic Activation: RAT, LIVER, S-9, AROCLOR 1254, Method: SUSPENSION/PLATE inactive; negative. reevaluation of results: negative

c1ccc2c(c1)Nc1ccccc1S2
inactive: Test System: AMES SALMONELLA TYPHIMURIUM, Strain/Indicator: TA98, Metabolic Activation: HAMSTER, LIVER, S-9, AROCLOR 1254 (10%), Method: PREINCUBATION inactive; negative | Test System: AMES SALMONELLA TYPHIMURIUM, Strain/Indicator: TA98, Metabolic Activation: NONE, Method: PREINCUBATION inactive; negative | Test System: AMES SALMONELLA TYPHIMURIUM, Strain/Indicator: TA98, Metabolic Activation: NONE, Method: SPOT TEST inactive; negative | Test System: AMES SALMONELLA TYPHIMURIUM, Strain/Indicator: TA98, Metabolic Activation: RAT, LIVER, S-9, AROCLOR 1254 (10%), Method: PREINCUBATION inactive; negative | Test System: AMES SALMONELLA TYPHIMURIUM, Strain/Indicator: TA100, Metabolic Activation: HAMSTER, LIVER, S-9, AROCLOR 1254 (10%), Method: PREINCUBATION inactive; negative | Test System: AMES SALMONELLA TYPHIMURIUM, Strain/Indicator: TA100, Metabolic Activation: NONE, Method: PREINCUBATION inactive; negative | Test System: AMES SALMONELLA TYPHIMURIUM, Strain/Indicator: TA100, Metabolic Activation: RAT, LIVER, S-9, AROCLOR 1254 (10%), Method: PREINCUBATION inactive; negative | Test System: AMES SALMONELLA TYPHIMURIUM, Strain/Indicator: TA1535, Metabolic Activation: HAMSTER, LIVER, S-9, AROCLOR 1254 (10%), Method: PREINCUBATION inactive; negative | Test System: AMES SALMONELLA TYPHIMURIUM, Strain/Indicator: TA1535, Metabolic Activation: NONE, Method: PREINCUBATION inactive; negative | Test System: AMES SALMONELLA TYPHIMURIUM, Strain/Indicator: TA1535, Metabolic Activation: RAT, LIVER, S-9, AROCLOR 1254 (10%), Method: PREINCUBATION inactive; negative | Test System: AMES SALMONELLA TYPHIMURIUM, Strain/Indicator: TA1537, Metabolic Activation: HAMSTER, LIVER, S-9, AROCLOR 1254 (10%), Method: PREINCUBATION inactive; negative | Test System: AMES SALMONELLA TYPHIMURIUM, Strain/Indicator: TA1537, Metabolic Activation: NONE, Method: PREINCUBATION inactive; negative | Test System: AMES SALMONELLA TYPHIMURIUM, Strain/Indicator: TA1537, Metabolic Activation: RAT, LIVER, S-9, AROCLOR 1254 (10%), Method: PREINCUBATION inactive; negative
